Experiments:
[1] = test system: caspases 3/7 in MDA-MB-231; assay: Caspase Glo-3/7 Assay; format: cell-based, Human; conditions: MDA-MB-231, relative to vehicle treated cells, FIG. 2C
Experimental: (§1) The Caspase Glo-3/7 Assay (Promega) was used to measure the combined activities of caspases-3 and -7. In brief, cells were seeded in a white-walled 96-well plate (Nunc) at a density of 2,000 cells/well and allowed to attach overnight. AF was added the following day in final concentrations of 0.1 nM to 100 μM in replicas of 8. Caspase activity was measured 5 days later by adding the Caspase Glo-3/7 reagent to the plate and incubating for another 2 hours. Caspase cleavage results in the release a substrate for luciferase that was measured using a LumiCount luminometer (Packard). Caspase activity levels were normalized to the amount of viable cells, determined by the CellTiter-Glo Luminescent Cell Viability Assay (Promega) performed in parallel to the caspase assay. Data analysis to obtain the mean and standard error as well as graphing employed Excel® (Microsoft Corporation).

caspases 3/7 in MCF7 = assay: Caspase Glo-3/7 Assay; format: cell-based, Human; conditions: MCF7, relative to vehicle treated cells, FIG. 2C
Experimental: as §1

caspases 3/7 in T47D = assay: Caspase Glo-3/7 Assay; format: cell-based, Human; conditions: relative to vehicle treated cells, FIG. 2C
Experimental: as §1

[2] = test system: caspases 3/7 in MDA-MBA-468; assay: Caspase Glo-3/7 Assay; format: cell-based, Human; conditions: MDA-MBA-468, relative to vehicle treated cells, FIG. 2C
Experimental: as §1

[3] = test system: gamma-H2AX in MDA-MBA-468; assay: Western blot analysis for phosphorylated H2AX; format: cell-based, Human; conditions: MDA-MBA-468, AF for 24 hrs, FIG. 2B
Experimental: (§2) Western blot analysis for phosphorylated H2AX (γ-H2AX) was performed by first growing cells to between 50% and 80% confluence and treating them with concentrations of AF for 24 hrs, according to the concentration at which 50% of the proliferation was inhibited (IC50). Cells were collected and centrifuged at 1,000×g for 15 minutes at 4° C. Histones were released by the method described by Meng et al. (Cancer Res, 65(12):5337-43 (2005)). Briefly, pellets were washed twice in PBS, homogenized in 0.2 mol/L H2SO4, and centrifuged at 13,000×g. The supernatant was removed and 0.25 volume of 100% (w/v) trichloroacetic acid was added to precipitate the histones. Samples were then centrifuged again at 13,000×g for 15 mins at 4° C. The supernatant was removed and the remaining pellet was suspended in 100% ethanol overnight. A final centrifugation step was performed at 13,000×g for 15 mins at 4° C. The solute was then dissolved in nuclease-free water. Protein concentration was determined using the Bio-Rad Protein Assay (Bio-Rad, CA). 30 μg of protein was resolved on 4-20% Tris-glycine precast gels (Invitrogen). Proteins were transferred onto a PVDF membrane (Immobilon-P, Millipore) and then blocked with 5% milk in TBST (0.1% Tween-20 in 1× Tris-buffered saline—pH 7.4) for 1 hr. […]

[4] = test system: gamma-H2AX in MDA-MBA-231; assay: Western blot analysis for phosphorylated H2AX; format: cell-based, Human; conditions: MDA-MBA-231, AF for 24 hrs, FIG. 2B
Experimental: as §2

MDA-MB-231 = assay: Cell Death Detection ELISA PLUS apoptosis assay; format: cell-based, Human; conditions: 1 μM AF, MDA-MB-231, 24 h or 48 h, FIG. 2A
Experimental: (§3) To determine the induction of apoptosis, the Cell Death Detection ELISA^PLUS Assay (Roche Cat. No. 11774425001), which determines the degree of cytoplasmic mono- and oligonucleosomes, was employed as described by the manufacturer. Briefly, breast cancer cells (5,000 cells for MCF-7; 2,000 cells for MDA-MB-231; 15,000 cells for T47D; 15,000 cells for MDA-MB-468; 5,000 cell for Hst578) were plated on 96 well plates and treated the next morning with or without or 1 uM AF for 24 h or 48 h. Cells were then concentrated by centrifugation at 200 g for 10 min at room temperature and the supernatant was discarded. Cells were lysed, and cytoplasmic fractions containing fragmented DNA were transferred to streptavidin-coated microtiter plates preincubated with a biotinylated monoclonal anti-histone antibody. The amount of fragmented nucleosomes bound to anti-histone antibody was evaluated by peroxidase-conjugated monoclonal antibody using ABTS (2,2-azino-di[3-ethylbenzthiazoline sulfonate-6-diammonium salt]) as a substrate, and read in a microplate reader at 405 nm. Non-treated cells were employed as controls.

Hst578t = assay: Cell Death Detection ELISA PLUS apoptosis assay; format: cell-based, Human; conditions: 1 μM AF, Hst578t listed as AF insensitive, 24 h or 48 h, FIG. 2A
Experimental: as §3

U251 = U251 CNS cancer cell line, NIH dose response data; cited from earlier work
T47D = assay: Cell Death Detection ELISA PLUS apoptosis assay; format: cell-based, Human
Experimental: as §3, with “Briefly, breast cancer cells (5,000 cells for MCF-7; 2,000 cells for MDA-MB-231; 15,000 cells for T47D; 15,000 cells for MDA-MB-468; 5,000 cell for Hst578) were plated on 96 well plates and treated the next morning with or without or 1 uM AF for 24 h or 48 h.” left out

SW620 = SW620 colon cell line, NIH dose response data; cited from earlier work
TK10 = TK10 renal cell line, NIH dose response data; cited from earlier work
A496 = A496 renal cell line, NIH dose response data; cited from earlier work

- Caspases 3 and 7 activity [1]: do not
- induction of caspases 3/7 (combined activity) (caspases 3/7 in T47D): marked induction
- induction of caspases 3/7 (combined activity) [2]: marked induction
SMILES: Cc1c(F)c(N)c2c(=O)cc(-c3ccc(N)c(F)c3)oc2c1F [AF, 5-amino-2-(4-amino-3-fluorophenyl)-6,8-difluoro-7-methylchromen-4-one]
- induction of caspases 3/7 (combined activity) (caspases 3/7 in MCF7): not activated
- presence of gamma-H2AX (double stranded DNA breaks) [3]: observed
- presence of gamma-H2AX (double stranded DNA breaks) [4]: not observed at all
- increase in cytoplasmic nucleosomes (MDA-MB-231): < 2 fold
- increase in cytoplasmic nucleosomes (Hst578t): < 2 fold
- AF sensitivity (U251): some degree of sensitivity
- increase (cytoplasmic nucleosomes; printed as increase in inhibition of cell proliferation) (T47D; 1 μM AF, FIG. 2A): > 4.5 fold
- induction of apoptosis (T47D; 48 hours post-AF treatment, 100 nM AF per legend FIG. 2A): prominent induction of apoptosis
- AF sensitivity (SW620): AF sensitive
- AF sensitivity (TK10): AF sensitive
- AF sensitivity (A496): AF sensitive
